# Measured values as given in ChEMBL document CHEMBL4304757, “Synthetic heterocyclic candidates as promising α-glucosidase inhibitors: An overview” (Eur J Med Chem, 2019).
# Biological target: not listed separately
# Experiment: Inhibition of yeast alpha-glucosidase using p-nitrophenyl-alpha-d-glucopyranoside as substrate preincubated for 15 mins followed by substrate addition measured after 30 mins
# Set-up: species or system Saccharomyces cerevisiae
# Details: not given
row,SMILES,IC50 [µM]
1,Cc1n[nH]c2c1C(c1ccc(Cl)cc1Cl)C(C#N)=C(N)O2 (stereo not drawn),60 to 180
2,Cc1[nH]nc2c1C(c1ccccc1OCc1ccccc1)C(C#N)=C(N)O2 (stereo not drawn),60 to 180
3,Cc1ccc(C(CC(=O)c2ccccc2)C(C(=O)Nc2ccccn2)C(=O)Nc2ccccn2)cc1 (stereo not drawn),28
4,Cc1ncc([N+](=O)[O-])n1Cn1cc(Cn2c3ccccc3c3ccccc32)nn1,6.8
5,Cc1n[nH]c2c1C(c1ccc([N+](=O)[O-])cc1)C(C#N)=C(N)O2 (stereo not drawn),54
6,COc1cc(C2C(C#N)=C(N)Oc3n[nH]c(C)c32)ccc1OCc1ccccc1 (stereo not drawn),60 to 180
7,C[C@H]1O[C@H](O[C@H]2[C@H](O)[C@@H](O)[C@@H](O[C@H]3[C@H](O)[C@@H](O)C(O)O[C@@H]3CO)O[C@@H]2CO)[C@H](O)[C@@H](O)[C@@H]1N[C@H]1C=C(CO)[C@@H](O)[C@H](O)[C@H]1O (stereo partly drawn) [ACARBOSE],937
8,Cc1[nH]nc2c1C(c1ccc(O)c(OCc3ccccc3)c1)C(C#N)=C(N)O2 (stereo not drawn),60 to 180
9,O=C(c1ccc(O)cc1)C1Cc2c(ccc3ccccc23)O1 (stereo not drawn),6.5
10,O=C(Cn1cc(Cn2c3ccccc3c3ccccc32)nn1)c1ccc(O)c(Br)c1,0.61 to 1
11,c1cncc(Cn2cc(Cn3c4ccccc4c4ccccc43)nn2)c1,0.8
12,c1ccc2c(c1)c1ccccc1n2Cc1cn(Cc2ccc(-c3ccc(Cn4cc(Cn5c6ccccc6c6ccccc65)nn4)cc3)cc2)nn1,73
13,O=C(CC(c1ccc(Br)cc1)C(C(=O)Nc1ccccn1)C(=O)Nc1ccccn1)c1ccccc1 (stereo not drawn),12
14,c1ccc2c(c1)c1ccccc1n2Cc1cn(Cc2ccc(Cn3cc(Cn4c5ccccc5c5ccccc54)nn3)cc2)nn1,3.6

# Biological target: not listed separately
# Experiment: Inhibition of yeast alpha-glucosidase using p-nitrophenyl-alpha-d-glucopyranoside as substrate preincubated with enzyme followed by substrate addition measured after 30 mins
# Set-up: species or system Saccharomyces cerevisiae
# Details: not given
row,SMILES,IC50 [µM]
1,CC1=NN(c2ccccc2)C(=O)/C1=C/c1cn(-c2ccccc2)nc1-c1cc2ccccc2oc1=O,2.1 to 289
2,CC1=NN(c2ccc(C)cc2)C(=O)/C1=C/c1cn(-c2ccccc2)nc1-c1cc2cc(Br)ccc2oc1=O,2.1 to 289
3,CC1=NN(c2ccc(C)cc2)C(=O)/C1=C/c1cn(-c2ccccc2)nc1-c1cc2ccccc2oc1=O,2.1 to 289
4,CC1=NN(c2ccc(C)cc2)C(=O)/C1=C/c1cn(-c2ccccc2)nc1-c1ccc(-c2ccccc2)cc1,2.1 to 289
5,CC1=NN(c2ccc([N+](=O)[O-])cc2)C(=O)/C1=C/c1cn(-c2ccccc2)nc1-c1ccc(-c2ccccc2)cc1,2.1 to 289
6,CC1=NN(c2ccccc2)C(=O)/C1=C/c1cn(-c2ccccc2)nc1-c1ccc(-c2ccccc2)cc1,2.1 to 289
7,O=C1/C(=C/c2cn(-c3ccccc3)nc2-c2cc3cc(Br)ccc3oc2=O)C(c2ccccc2)=NN1c1ccccc1,2.1 to 289
8,CC1=NN(c2ccc([N+](=O)[O-])cc2)C(=O)/C1=C/c1cn(-c2ccccc2)nc1-c1cc2ccccc2oc1=O,2.1 to 289
9,O=C1/C(=C/c2cn(-c3ccccc3)nc2-c2cc3ccccc3oc2=O)C(c2ccccc2)=NN1c1ccccc1,2.1 to 289

# Biological target: not listed separately
# Experiment: Inhibition of yeast alpha-glucosidase using p-nitrophenyl-alpha-d-glucopyranoside as substrate preincubated for 15 mins followed by substrate addition measured after 20 mins
# Set-up: species or system Saccharomyces cerevisiae
# Details: not given
row,SMILES,IC50 [µM]
1,Fc1ccc(-c2nc3ccc(N4CCOCC4)cc3[nH]2)cc1Br,3.4 to 20
2,COc1cc(-c2nc3ccc(N4CCN(C)CC4)cc3[nH]2)ccc1O,2.2 to 21
3,CN1CCN(c2ccc3nc(-c4ccc(F)c(Br)c4)[nH]c3c2)CC1,2.2 to 21
4,CN(C)c1ccc(-c2nc3ccc(N4CCOCC4)cc3[nH]2)cc1,3.4 to 20
5,Clc1ccc(-c2nc3ccc(N4CCOCC4)cc3[nH]2)cc1,3.4 to 20
6,CN1CCN(c2ccc3[nH]c(-c4ccc(O)cc4)nc3c2)CC1,2.2
7,NNC(=O)Cn1c(Cc2ccc(Cl)cc2Cl)nc2ccc([N+](=O)[O-])cc21,10
8,CN1CCN(c2ccc3nc(-c4ccccn4)[nH]c3c2)CC1,2.2 to 21
9,CN1CCN(c2ccc3nc(-c4ccc(O)c(O)c4)[nH]c3c2)CC1,2.2 to 21
10,c1ccc(-c2nc3ccc(N4CCOCC4)cc3[nH]2)nc1,3.4 to 20
11,CN1CCN(c2ccc3nc(-c4ccc(N(C)C)cc4)[nH]c3c2)CC1,2.2 to 21
12,Oc1ccc(-c2nc3ccc(N4CCOCC4)cc3[nH]2)cc1O,3.4 to 20
13,COc1cc(-c2nc3ccc(N4CCOCC4)cc3[nH]2)ccc1O,3.4 to 20
14,CN1CCN(c2ccc3nc(-c4ccc(Cl)cc4)[nH]c3c2)CC1,2.2 to 21

# Biological target: Alpha glucosidase (Homo sapiens, UniProt O43451+P10253+P14410+Q2M2H8)
# Experiment: Inhibition of alpha-glucosidase (unknown origin) using p-nitrophenyl-alpha-d-glucopyranoside as substrate preincubated for 5 mins followed by substrate addition measured after 30 mins
# Assay type: protein assay
# Details: not given
row,SMILES,IC50 [µM]
1,Cc1ccc(C)c(N2C(=O)/C(=C/c3ccc(F)cc3)S/C2=N\NC(=O)c2cc3ccccc3oc2=O)c1,> 100
2,Cc1cccc(C)c1N1C(=O)/C(=C/c2ccc(F)cc2)S/C1=N\NC(=O)c1cc2ccccc2oc1=O,0.09 to 1.6
3,Cc1ccc(N2C(=O)/C(=C/c3ccc(F)cc3)S/C2=N\NC(=O)c2cc3ccccc3oc2=O)cc1C,0.09 to 1.6

# System: MDA-MB-231
# Experiment: Cytotoxicity against human MDA-MB-231 cells assessed as reduction in cell viability at 100 uM relative to control
# Assay type: functional, cell-based
# Details: not given
row,SMILES,Activity
1,Cc1ccc(C)c(N2C(=O)/C(=C/c3ccc(F)cc3)S/C2=N\NC(=O)c2cc3ccccc3oc2=O)c1,>=76%
2,Cc1cccc(C)c1N1C(=O)/C(=C/c2ccc(F)cc2)S/C1=N\NC(=O)c1cc2ccccc2oc1=O,>=76%

# Same assay, conditions: Homo sapiens, MDA-MB-231
row,SMILES,IC50 [µM]
1,Cc1ccc(N2C(=O)/C(=C/c3ccc(F)cc3)S/C2=N\NC(=O)c2cc3ccccc3oc2=O)cc1C,0.09 to 1.6
